Laboratory results from patent US8759334B2, “Compounds useful for the treatment of metabolic and inflammatory diseases” (Galapagos NV, priority 2011, dated 2014).

What was measured:
GPR43 [1] = molecular target: T1, GPR43 (Homo sapiens, UniProt O15552); experiment: Calcium mobilization assay with probenecid; type: cell-based; details: GPR43 stably expressing cells; triggered with sodium acetate at EC80; 2.5 mM probenecid; read-out: GPR43 assay with probenicid IC50
T1 construct: expressed in transfected cells
T1 sequence (O15552 1-330): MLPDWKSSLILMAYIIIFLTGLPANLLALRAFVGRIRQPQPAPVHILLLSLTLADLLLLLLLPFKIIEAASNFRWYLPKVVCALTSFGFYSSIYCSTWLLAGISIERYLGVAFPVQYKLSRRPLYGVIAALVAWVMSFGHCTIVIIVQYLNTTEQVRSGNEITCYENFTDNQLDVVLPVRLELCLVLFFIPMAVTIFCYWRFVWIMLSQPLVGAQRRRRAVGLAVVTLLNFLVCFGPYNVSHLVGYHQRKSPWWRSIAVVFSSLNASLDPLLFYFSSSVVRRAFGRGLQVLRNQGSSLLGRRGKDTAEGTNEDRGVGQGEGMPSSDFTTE
Procedure, shortened: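 […] being added at rising concentrations to a GPR43 stable line. Before this, cells were dye-loaded (Calcium 4 with 2.5 mM probenecid) for 2 h at 37 °C after overnight plating.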

GPR43 [2] = molecular target: T1, GPR43; experiment: [35S]GTPγS binding assay; type: biochemical; details: membranes from stable cell line over expressing GPR43; sodium acetate at EC80
Protocol: The assay was performed in a 96 well plate where the following reagents were added. […] In a last step, 30 μL of a mixture consisting of membranes-GTPγS-SpA beads was added (mixture consists of 10 μg/well membranes derived from stable cell line over expressing GPR43 (membranes were pre-incubated with 3 μM GDP for 15 minutes at 4° C.), 0.1 nM [35S]GTPγS (Perkin Elmer, NEG030) and 0.5 mg/well PVT-WGA SpA beads (perkin Elmer, RPNQ0001)). […] Reactions were incubated for 240 minutes at room temperature followed by centrifugation at 2000 rpm for 15 minutes. Plates were read on a Topcount immediately after centrifugation (readout time, 1 minute/well).

human neutrophils = experiment: Neutrophil migration assay; type: cell-based; details: neutrophils from human buffy coat, migration towards sodium acetate, read-out: human neutrophil migration inhibition EC50
Protocol: G Protein-Coupled Receptor 43 (GPR43) was described as an essential player in the process of neutrophil recruitment during intestinal inflammation.
The effect of agonists or antagonists for GPR43 can therefore be assayed in a neutrophil migration test. In the neutrophil migration assay, neutrophils, isolated from buffy coats from human volunteers, are treated with a compound for 30 minutes. Subsequently, the neutrophils are transferred to the upper wells of a Corning HTS transwell 96 permeable support system, of which the lower wells are filled with a sodium acetate solution.
The ACD buffer consists of 140 mM citric acid, 200 mM sodium citrate and 220 mM dextrose. The 6% dextran/0.9% NaCl solution consists of 15 g dextran T2000 and 2.25 g NaCl dissolved in 250 mL H2O.
A human buffy coat is diluted with an equal volume of ice cold DPBS. 20 mL of the diluted buffy coat is gently mixed with 4 mL of ACD buffer. Then, 12 mL of the 6% dextran/0.9% NaCl solution is added to the mixture and the samples are inverted gently up to 20 times. The total volume is transferred to a new recipient and incubated at room temperature for 1 h for complete separation of the two phases to occur. The yellowish supernatant is then transferred to a clean centrifugation tube and centrifuged for 12 minutes at 1300 rpm and 4° C. After centrifugation, the supernatant is discarded and the remaining cell pellet is rapidly resuspended in 12 mL of ice-cold H2O for red blood cell lysis to occur. After 20 seconds, 4 mL of ice-cold 0.6 M KCl is added. Samples are mixed carefully and centrifuged for 6 minutes at 1300 rpm, 4° C. The supernatant is discarded and the red blood cell lysis procedure is repeated one more time. […] After centrifugation for 12 min at 1300 rpm, 4° C., the supernatant is removed and the cell pellet, containing the neutrophils, is resuspended in 25 mL chemotaxis buffer.
A cell suspension of 8.9×10^6 cells per milliliter is prepared. 20 μL of compound solution in chemotaxis buffer is added to 180 μl cell suspension. The mixture is incubated at 37° C. for 30 minutes with Intermediate resuspension of the cells after 15 minutes. […] The receiver well of the transwell system is then filled with 200 μL chemotaxis buffer containing compound and chemotactic agent (sodium acetate). After incubation at 37° C. in 5% CO2 for 1 h, the upper plate of the transwell system is removed and the cell suspension in the receiver plate is transferred to a 96-well V-bottom plate. 50 μL of DPBS is added to the receiver plate to prevent remaining cells from drying out. The V-bottom plate is centrifuged for 6 minutes at 1500 rpm. The supernatant is removed and the cells are resuspended in 50 μL DPBS. The cells are then transferred back to the receiver plate of the transwell system. […] The plate is incubated for 10 minutes in the dark, while shaking. 170 μL of cell lysate is then transferred to a white 96-well plate and luminescence is measured. The detected luminescent signal is considered as linearly related to the number of migrated cells.

GPR43 [3] = molecular target: T1, GPR43; experiment: Calcium mobilization assay without probenecid; type: cell-based; details: GPR43 stably expressing cells, triggered with sodium acetate at EC80, read-out: GPR43 assay without probenicid IC50
Procedure, shortened: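 In GPR43-expressing cells loaded with a Calcium 4 dye, antagonism was tested by a 15 min compound preincubation at 37 °C, then a sodium acetate challenge at EC80, with Ca-flux read on injection. For agonism, Ca-flux was recorded directly on compound injection.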

Row | Structure (SMILES) | IC50 (GPR43 [1]) [nM] | IC50 (GPR43 [2]) [nM] | EC50 (human neutrophils) [nM] | IC50 (GPR43 [3]) [nM]
1 | C[C@@H](c1ccc(Cl)cc1)N(CCCC(=O)O)C(=O)[C@@]1(C)CCN1C(=O)c1csc2ccccc12 [Compound 198, 4-{[(R)-1-(Benzo[b]thiophene-3-carbonyl)-2-methyl-azetidine-2-carbonyl]-[(S)-1-(4-chloro-phenyl)-ethyl]-amino}-butyric acid] | 0.01 to 100 | 101 to 500 | – | –
2 | CC1(C(=O)N(CCCC(=O)O)c2ccc(Cl)cc2)CCN1C(=O)c1csc2ccccc12 (stereo not shown) [Compound 194, 4-[[1-(Benzo[b]thiophene-3-carbonyl)-2-methyl-azetidine-2-carbonyl]-(4-chloro-phenyl)-amino]-butyric acid] | 0.01 to 100 | > 501 | – | –
3 | CCC1(C(=O)N(CCCC(=O)O)Cc2cccc(Cl)c2)CCN1C(=O)c1csc2ccccc12 (stereo not shown) [Compound 195, 4-[[1-(Benzo[b]thiophene-3-carbonyl)-2-ethyl-azetidine-2-carbonyl]-(3-chloro-benzyl)-amino]-butyric acid] | 0.01 to 100 | 101 to 500 | – | –
4 | CC1(C(=O)N(CCCC(=O)O)Cc2ccc3cc[nH]c3c2)CCN1C(=O)c1csc2ccccc12 (stereo not shown) [Compound 134, 4-[[1-(Benzo[b]thiophene-3-carbonyl)-2-methyl-azetidine-2-carbonyl]-(1H-indol-6-ylmethyl)-amino]-butyric acid] | 0.01 to 100 | > 501 | 0.01 to 100 | –
5 | CC1(C(=O)N(CCCC(=O)O)Cc2ccc(Cl)cc2)CCN1C(=O)c1csc2ccccc12 (stereo not shown) [Compound 115, 4-[[1-(Benzo[b]thiophene-3-carbonyl)-2-methyl-azetidine-2-carbonyl]-(4-chloro-benzyl)-amino]-butyric acid] | 0.01 to 100 | 101 to 500 | 0.01 to 100 | –
6 | CC1(C(=O)N(CCC(=O)O)Cc2ccc(Cl)cc2)CCN1C(=O)c1csc2ccccc12 (stereo not shown) [Compound 155, 3-[[1-(Benzo[b]thiophene-3-carbonyl)-2-methyl-azetidine-2-carbonyl]-(4-chloro-benzyl)-amino]-propionic acid] | 0.01 to 100 | > 501 | 0.01 to 100 | –
7 | CC1(C(=O)N(CCCC(=O)O)Cc2ccc3cc[nH]c3c2)CCN1C(=O)Cc1csc2ccccc12 (stereo not shown) [Compound 128, 4-[[1-(2-Benzo[b]thiophen-3-yl-acetyl)-2-methyl-azetidine-2-carbonyl]-(1H-indol-6-ylmethyl)-amino]-butyric acid] | 0.01 to 100 | 101 to 500 | 0.01 to 100 | –
8 | Cc1cc(C)cc(CC(=O)N2CCC2(C)C(=O)N(CC(=O)O)Cc2ccc3cc[nH]c3c2)c1 (stereo not shown) [Compound 96, [{1-[2-(3,5-Dimethyl-phenyl)-acetyl]-2-methyl-azetidine-2-carbonyl}-(1H-indol-6-ylmethyl)-amino]-acetic acid] | 101 to 500 | – | 0.01 to 100 | 101 to 500
9 | CC1(C(=O)N(CCCS(N)(=O)=O)Cc2ccc(Cl)cc2)CCN1C(=O)c1csc2ccccc12 (stereo not shown) [Compound 182, 1-(Benzo[b]thiophene-3-carbonyl)-2-methyl-azetidine-2-carboxylic acid (4-chloro-benzyl)-(3-sulfamoyl-propyl)-amide] | 0.01 to 100 | 101 to 500 | – | –
10 | CC1(C(=O)N(CCCS(N)(=O)=O)Cc2cccc(Cl)c2)CCN1C(=O)c1csc2ccccc12 (stereo not shown) [Compound 187, 1-(Benzo[b]thiophene-3-carbonyl)-2-methyl-azetidine-2-carboxylic acid (3-chloro-benzyl)-(3-sulfamoyl-propyl)-amide] | 0.01 to 100 | 101 to 500 | – | –
11 | CC1(C(=O)N(CCCC(=O)O)Cc2ccc(C(F)(F)F)cc2)CCN1C(=O)Cc1csc2ccccc12 (stereo not shown) [Compound 144, 4-[[1-(2-Benzo[b]thiophen-3-yl-acetyl)-2-methyl-azetidine-2-carbonyl]-(4-trifluoromethyl-benzyl)-amino]-butyric acid] | 0.01 to 100 | 51 to 100 | 0.01 to 100 | –
12 | CC1(C(=O)N(CCCC(=O)O)Cc2ccc(Cl)cc2)CCN1C(=O)Cc1csc2ccccc12 (stereo not shown) [Compound 89, 4-[[1-(2-Benzo[b]thiophen-3-yl-acetyl)-2-methyl-azetidine-2-carbonyl]-(4-chloro-benzyl)-amino]-butyric acid] | 0.01 to 100 | – | 0.01 to 100 | 0.01 to 100
13 | Cc1cc(C)cc(CC(=O)N2CCC2(C)C(=O)N(CCCC(N)=O)Cc2ccc(Cl)cc2)c1 (stereo not shown) [Compound 90, 1-[2-(3,5-Dimethyl-phenyl)-acetyl]-2-methyl-azetidine-2-carboxylic acid (3-carbamoyl-propyl)-(4-chloro-benzyl)-amide] | 101 to 500 | – | 0.01 to 100 | 0.01 to 100
14 | CC1(C(=O)N(CC(=O)O)Cc2ccc(Cl)cc2)CCN1C(=O)Cc1csc2ccccc12 (stereo not shown) [Compound 61, [[1-(2-Benzo[b]thiophen-3-yl-acetyl)-2-methyl-azetidine-2-carbonyl]-(4-chloro-benzyl)-amino]-acetic acid] | 0.01 to 100 | – | 0.01 to 100 | 0.01 to 100
15 | CC1(C(=O)N(CCCC(=O)O)Cc2ccc3ccoc3c2)CCN1C(=O)Cc1csc2ccccc12 (stereo not shown) [Compound 131, 4-{[1-(2-Benzo[b]thiophen-3-yl-acetyl)-2-methyl-azetidine-2-carbonyl]-benzofuran-6-ylmethyl-amino}-butyric acid] | 0.01 to 100 | – | 101 to 500 | –
16 | CC1(C(=O)N(CCO)Cc2ccc(Cl)cc2)CCN1C(=O)Cc1csc2ccccc12 (stereo not shown) [Compound 67, 1-(2-Benzo[b]thiophen-3-yl-acetyl)-2-methyl-azetidine-2-carboxylic acid (4-chloro-benzyl)-(2-hydroxy-ethyl)-amide] | > 1000 | 101 to 500 | – | 0.01 to 100
17 | CC1(C(=O)N(CCC(=O)O)Cc2cccc(Cl)c2)CCN1C(=O)c1csc2ccccc12 (stereo not shown) [Compound 169, 3-[[1-(Benzo[b]thiophene-3-carbonyl)-2-methyl-azetidine-2-carbonyl]-(3-chloro-benzyl)-amino]-propionic acid] | 0.01 to 100 | > 501 | 101 to 500 | –
18 | CC1(C(=O)N(CCCC(=O)O)Cc2ccc3cn[nH]c3c2)CCN1C(=O)Cc1csc2ccccc12 (stereo not shown) [Compound 130, 4-[[1-(2-Benzo[b]thiophen-3-yl-acetyl)-2-methyl-azetidine-2-carbonyl]-(1H-indazol-6-ylmethyl)-amino]-butyric acid] | 0.01 to 100 | – | 101 to 500 | –
19 | Cc1cc(C)cc(CC(=O)N2CCC2(C)C(=O)N(Cc2ccc(Cl)cc2)Cc2cc(O)no2)c1 (stereo not shown) [Compound 132, 1-[2-(3,5-Dimethyl-phenyl)-acetyl]-2-methyl-azetidine-2-carboxylic acid (4-chloro-benzyl)-(3-hydroxy-isoxazol-5-ylmethyl)-amide] | 0.01 to 100 | – | 101 to 500 | –
